Reference: PMC8152814, “The modulatory role of sulfated and non-sulfated small molecule heparan sulfate-glycomimetics in endothelial dysfunction: absolute structural clarification, molecular docking and simulated dynamics, SAR analyses and ADMET studies” (RSC Medicinal Chemistry, 2021)

Legend:
Type in all cases: cell-based, human
Settings in all cases: averaged % of increase (+) or decrease (−) compared to control (FFA induced oxidatively stressed endothelial cells), n = 3
NADPH oxidase = NADPH oxidase activity (lucigenin chemiluminescence) in cell homogenates; set-up: concentration or dose not given beside the values
Description: (§1) The assays focused on the production of nitric oxide (NO) and the upregulation of nitric oxide synthase (eNOS), the production of reactive oxygen species (ROS) and the activity of nicotinamide adenine dinucleotide phosphate (NADPH) oxidase (Table 2). From the hypothesised model of heparan sulfate-glycomimetic activity,[17] the glycomimetics are proposed to attenuate the binding of HGF to the cMET receptor. This disruption to MET-receptor activation is proposed to modulate intracellular phosphorylation leading to an upregulation of eNOS and increased output of extracellular NO. […] Overall, the cross examination of NO output and reduction of ROS was used to determine the therapeutic action of the triaged glycomimetics α-4, R-10, S-10 and β-5, as well as 3 non-sulfated intermediates α-2, α-3 and β-3, on free fatty acid (FFA) induced, oxidatively stressed endothelial cell cultures (Table 2).
(§2) Biological assay and AMDET experimental details […]
(§3) Preparation of FFA-albumin complexes and cell treatments
(§4) To generate the in vitro model of oxidative stress, sodium palmitate was bound to bovine serum albumin (BSA) as outlined by Chavez and Summers,S2 with modifications. Sodium palmitate (FFA) was dissolved in EtOH at 60 °C and diluted 1:100 in M199 media supplemented with 2% fatty acid-free bovine serum albumin (BSA) and incubated for 1 h at 37 °C. HepG2 cells were treated with 1 μmol/L of the synthesized HS-glycomimetics in the presence of palmitate (100 μmol/L) for 3 h or pre-treated with glycomimetics for 12 h followed by 3 h palmitate (100 μmol/L). Control cells were incubated in serum free M199 containing 2% (wt/vol) fatty acid-free BSA. […]
(§5) H2DCFDA, Sigma) for 30 min at 37 °C, and the level of fluorescence was determined (excitation 490 nm; emission 540 nm) using a microplate reader (BioTek).
(§6) The level of NADPH-enhanced superoxide anions (O2•−) in HepG2 homogenates was determined by lucigenin-enhanced chemiluminescence.S4 Following the various treatment conditions, cells were homogenized in a buffer (20 mmol/L H2KPO4 and 1 mmol/L EDTA supplemented with aprotinin, leuprotinin, pepstatin and PMSF). The total protein quantified using the Bicinchoninic acid (BCA) assay (Pierce Biotechnology). To 50 μg of total protein, NADPH (100 μmol/L) was added in a total volume of 500 μL, with lucigenin (5 μmol/L) and was injected automatically. Activity was determined by measuring luminescence over 200 s in a scintillation counter (Lumat LB 9507, Berthold, Germany). Basal values of NADPH oxidase activity were subtracted from the experimental values and expressed as RLU/min/μg protein […]
(§7) In situ quantification of ROS species
(§8) Superoxide dismutase (SOD) and catalase (CAT) activity assays, and in situ detection of vascular ROS content. The activity of the enzymes, SOD and CAT, was determined in cell homogenates using assay kits according to the manufacturer's instructions (Cayman; Cat No 706002 and 707002 respectively). A unit of SOD was defined as the amount of enzyme […]
(§9) Similarly, a unit of CAT was […]
(§10) defined as the amount required to form 1.0 nmol of formaldehyde per min at 25 °C.S5

eNOS = eNOS phosphorylation (Western blot) in FFA-stressed cells
Description: as §1, §2, §3, §4
HepG2 wells were lysed in RIPA buffer containing proteinase inhibitors and the total protein was quantified using BCA protein assay kit (Pierce Biotechnology). Proteins (30 μg/well) were denatured and separated by sodium dodecyl sulfate (SDS)-polyacrylamide gel electrophoresis and transferred to polyvinylidene difluoride (PVDF) membranes. Blots were blocked for 1 h in 5% semi-skimmed milk/Tris-Buffered Saline Tween-20 (TBS-T), probed with primary rabbit anti-phospho-protein kinase B (Akt), rabbit anti-Akt (Santa Cruz Biotechnology), rabbit polyclonal anti-phospho-eNOS (Cell Signaling) overnight at 4 °C followed by washing and incubation with the corresponding horse radish peroxidase-labelled secondary antibody for 1 h at room temperature. After washing with TBS-T, membranes were incubated with ECL reagent and visualized (Amersham Pharmacia Biotech). Densitometry analysis using ImageJ© (version 1.32j, NIH) was used to quantify the protein signal.S7 […]
(typically 0.01 M phosphate buffered saline pH 7.4) so that the final DMSO concentration is 1 % and the final test compound concentrations are 1, 3, 10, 30 and 100 µM. The experiment is performed at 37 °C and each concentration is incubated in 7 replicate wells. The plates are incubated for 2 h at 37 °C before the absorbance is measured at 620nm. Nicardipine (pH dependent) and pyrene (pH independent) are included as control compounds. The solubility is estimated from the concentration of test compound that produces an increase in absorbance above vehicle control (1% DMSO in buffer).

nitric oxide (NO) = experiment: NO release assay (DAF-2) in FFA-stressed cells
Description: as §1, §2, §3
(§11) To generate the in vitro model of oxidative stress, sodium palmitate was bound to bovine serum albumin (BSA) as outlined by Chavez and Summers,S2 with modifications. Sodium palmitate (FFA) was dissolved in EtOH at 60 °C and diluted 1:100 in M199 media supplemented with 2% fatty acid-free bovine serum albumin (BSA) and incubated for 1 h at 37 °C. HepG2 cells were treated with 1 μmol/L of the synthesized HS-glycomimetics in the presence of palmitate (100 μmol/L) for 3 h or pre-treated with glycomimetics for 12 h followed by 3 h palmitate (100 μmol/L). Control cells were incubated in serum free M199 containing 2% (wt/vol) fatty acid-free BSA.
NO release assay and Quantification of ROS production
NO release was determined using diaminofluorescein-2 (DAF-2).S3 The cells were washed with PBS and incubated with L-arginine (100 μmol/L in PBS) for 5 min at 37 °C before incubation with DAF-2 (0.1 μmol/L) for 2 min, followed by the calcium ionophore calimycin (A23187, 1 μmol L) for 30 min. L-NAME (100 μmol/L), a nitric oxide inhibitor (NOS), was also added 20 min before the addition of L-arginine in some experiments to determine the involvement of NOS. DAF-2 fluorescence (arbitrary units, AU) was quantified using a microplate reader (BioTek) with excitation and emission wavelengths of 485 nm and 540 nm, respectively. The auto-fluorescence was subtracted from each value. […]
as §5, §6, §7, §8, §9, §10

[1] = test system: reactive oxygen species (ROS); experiment: ROS production in FFA-stressed cells
Description: as §1, §2, §3, §11
NO release assay and Quantification of ROS production […]
The auto-fluorescence was subtracted from each value. Cells were incubated with 10 μmol/L of the fluorescent probe: 2′-7′-dichlorodihydrofluorescein diacetate (CM-H2DCFDA, Sigma) for 30 min at 37 °C, and the level of fluorescence was determined (excitation 490 nm; emission 540 nm) using a microplate reader (BioTek).
as §6, §7, §8, §9
defined as the amount required to form 1.0 nmol of formaldehyde per min at 25 °C.S5 […]
HepG2 cells were incubated in serum-free DMEM containing 2% fatty acid-free BSA (control) or palmitate conjugated BSA (100 μmol/L) in the presence of HS-glycomimetics (1 or 10 μmol/L) for 24 h. The cells were incubated for 30 min in Hepes-buffered solution containing 10 μmol/L dihydroethidium (DHE), which intercalates with DNA in the presence of ROS and is detectable by fluorescence. Cells were counterstained with the nuclear stain DAPI at 0.3 μmol/L. In the following 24 h, the cell cultures were examined using a fluorescence microscope (Leica DMIRB). Sections were photographed and fluorescence was quantified using ImageJ. […]

Structure (SMILES)	NADPH oxidase activity (NADPH oxidase)	eNOS phosphorylation (eNOS)	NO production (nitric oxide (NO))	ROS production [1]
O=C(O)c1cc(OCC(O)CO)ccc1OCC(O)CO (mixture of isomers) [β-3, sodium 5-((S)-2,3-dihydroxypropoxy)-2-((±)-2,3-dihydroxypropoxy)benzoate]	−27%	+294%	+52%	−19%
O=C(O)c1cc(OCC(O)CO)ccc1OCC(O)CO (mixture of isomers) [α-3, sodium 5-((R)-2,3-dihydroxypropoxy)-2-((±)-2,3-dihydroxypropoxy)benzoate]	−21%	+312%	+41%	−23%
COC(=O)c1cc(OC[C@H](O)CO)ccc1OC[C@@H](O)CO (mixture of isomers) [α-2, methyl 5-((R)-2,3-dihydroxypropoxy)-2-((S)-2,3-dihydroxypropoxy)benzoate]	−26%	+286%	+46%	−36%
